Data on 73 compounds can be found in PubChem BioAssay AID449762 (Southern Research Specialized Biocontainment Screening …, 2010).

The test system of the experiment is M. tuberculosis H37Rv growth inhibition, 7H9 media. Briefly: M. tuberculosis growth inhibition, HTS (AID 449762).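 On all read-outs here: bacterial growth assessed after seven days of incubation.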 The settings on record: for IC90: measured here: IC90 growth inhibition.

Inconclusive results are not listed.

Take `CCCOC(=O)CSc1nc(N2CCOCC2)c2c(c1C#N)CC(C)(C)OC2`: the IC50 was 21.8 µM and the IC90 came out at 37.4 µM.

Turning to `CCOC(=O)COc1cc(O)c2c(=O)cc(-c3ccccc3)oc2c1`, the IC50 was 0.68 µM and the IC90 is 2.33 µM.

As to `CC(C)[C@H](CO)N(Cc1cccc(F)c1)c1nc(Nc2cccc(Cl)c2)c2ncn(C(C)C)c2n1`, the IC50 was 23.2 µM and the IC90 stood at 35.4 µM.

For the compound `Oc1ccc(-[n+]2c(-c3ccccc3)cc(-c3ccccc3)cc2-c2ccccc2)cc1`, the IC50 was 11.7 µM and the IC90 worked out at 18.8 µM.

In the case of `c1ccc(-c2c3ccccc3nc3[nH]c4ccccc4c23)cc1`, the IC50 was 63.1 µM and the IC90 is greater than 100 µM.

Regarding `N#C/C=C\Oc1ccc(Cl)cc1N`, the IC50 was 14 µM and the IC90 was 23.3 µM.

On to `Cc1cccc(C2=N/C(=C\c3cccs3)C(=O)O2)c1`, for which the IC50 was 2.68 µM and the IC90 worked out at 15.5 µM.

As to `CCOc1cccc(/C=C/c2ccc3cccc(O)c3n2)c1O`, the IC50 is 1.38 µM and the IC90 was determined as 18.5 µM.

Consider `O=C(OCCN1C(=O)c2ccccc2C1=O)c1cc2ccccc2o1`, for which the IC50 is 12.2 µM and the IC90 is greater than 25 µM.

In the case of `O=C(Nc1cccc(-c2csc(Nc3ccc(Cl)cc3)n2)c1)c1cccc(C(F)(F)F)c1`, the IC50 was 27 µM and the 90% effect concentration (IC90) was greater than 100 µM.

In the case of `Cc1ccc(NC(=O)Cc2ccc(-c3ccccc3)cc2)nc1`, the IC50 was 25 µM and the IC90 was determined as 61.3 µM.

Take `O=C(c1ccc([N+](=O)[O-])s1)N1CCN(c2ccc(C(F)(F)F)cn2)CC1`: the IC50 was less than 0.2 µM and the IC90 is less than 0.2 µM.

In the case of `C=C(C)C1CC=C(CN2CCN(Cc3ccccc3)CC2)CC1` (stereo not drawn), the IC50 is 15.7 µM and the IC90 is 25.9 µM.

With `Cc1cc(-c2c(C)[nH]n(-c3ccccc3)c2=O)n[nH]1`, the IC50 is 5.54 µM and the IC90 is 25.5 µM.

Regarding `CCOC(=O)/C(=N/Nc1ccccc1)c1csc(Nc2ccccc2)n1`, the IC50 was 34.6 µM and the IC90 was greater than 100 µM.

Take `c1ccc(CN2CCN(c3nc(NCc4ccco4)c4ccccc4n3)CC2)cc1`: the IC50 is 18.1 µM and the IC90 was 23.8 µM.

Consider `Cc1ccc(CN2CCN(/N=C/c3ccc(Cl)c([N+](=O)[O-])c3)CC2)cc1`, for which the IC50 was 22.7 µM and the IC90 came out at 36.5 µM.

In the case of `CCOC(=O)N1CCN(c2nc(N(c3ccccc3)c3ccccc3)nc(-n3ccnc3)n2)CC1`, the IC50 was 92.7 µM and the IC90 was greater than 100 µM.

Turning to `COc1ccc(SC[C@H](Cc2ccccc2)N2CCN(CCc3ccccc3)CCC2=O)cc1`, the IC50 was 36.8 µM and the IC90 came out at 46.7 µM.

Consider `Cc1csc(NC(=S)Nc2cccc(Cl)c2)n1`, for which the IC50 is 2.76 µM and the IC90 came to 6.01 µM.

Turning to `O=[N+]([O-])c1ccc(C2CC(c3ccccc3)=Nc3ccccc3S2)cc1` (stereo not drawn), the IC50 is 5.11 µM and the IC90 turned out to be 6.66 µM.

For the compound `CC(C)OC(=O)CSc1nc2ccccc2s1`, the IC50 was 12.4 µM and the IC90 is 33.6 µM.

For the compound `O=C(COC(=O)c1cccs1)c1ccccc1`, the IC50 was 45 µM and the IC90 was greater than 100 µM.

In turn, `COC(=O)c1cccc(C#CC(NP(=O)(c2ccccc2)c2ccccc2)c2ccccc2)c1` (stereo not drawn) yielded an IC90 greater than 100 µM.

In the case of `COCCOC(=O)c1ccc(NC(=O)COc2ccc([N+](=O)[O-])cc2)cc1`, the IC50 is 83 µM and the IC90 is greater than 100 µM.

Regarding `COc1ccc(C2c3[nH]c4ccccc4c3CCN2C(=O)c2cc3ncccn3n2)c(F)c1` (stereo not drawn), the IC90 is greater than 100 µM.

As to `COc1ccc(/C=C2\CCC/C(=C\C=N\N(C)C)C2=O)cc1`, the IC50 was 8.19 µM and the IC90 is 16.2 µM.

Consider `Cc1cc(-n2c(C)cc(C(=O)COc3ccc4ccc(=O)oc4c3)c2C)no1`, for which the IC50 was 68.6 µM and the IC90 was greater than 100 µM.

`COc1ccccc1C1CCN(Cc2ccc3ccccc3c2)CC1`: the IC50 was 15.7 µM and the concentration for an effect of 90% (IC90) came to 21.8 µM.

As to `Cc1c(OCc2ccccc2)c(=O)ccn1Cc1ccc(Cl)cc1`, the IC50 is 39.4 µM and the IC90 amounted to 60.1 µM.

As for `Cc1ccc(-n2cc(CNCCn3nc(C)cc3C)c(-c3ccc(F)cc3)n2)cc1`, the IC50 was 3.48 µM and the IC90 was 9.36 µM.

In the case of `CN1CCN(c2ccc(C(=O)c3cn(-c4ccc(F)c(Cl)c4)nn3)cc2)CC1`, the IC90 is greater than 100 µM.

With `COc1ccccc1N(O)C1CC(=O)N(c2ccc(Br)cc2)C1=O` (stereo not drawn), the IC50 was 16.8 µM and the IC90 was 32.3 µM.

With `CCN1CSC(=S)N(Cc2ccccc2)C1`, the IC50 is 10.5 µM and the IC90 came to 24.1 µM.

For the compound `CC(NC(=O)c1ccccc1Br)C1CC2CCC1C2` (stereo not drawn), the IC50 is 21 µM and the IC90 was greater than 100 µM.

Take `CCOC(=O)CSc1nnc(-c2c[nH]c3ccccc23)o1`: the IC50 was 0.59 µM and the IC90 is greater than 100 µM.

Consider `CCOC(=O)C(C)Sc1ncnc2c1nnn2-c1ccc(F)cc1` (stereo not drawn), for which the IC50 was 1.19 µM and the IC90 came to 7.38 µM.

Take `Cc1ccc(NC(=O)CSc2nc3ccccc3c(=O)n2CCCN2CCCCC2)cc1Cl`: the IC50 is 39 µM and the IC90 stood at 55.5 µM.

In the case of `O=C(C[n+]1ccc(C(=O)c2ccccc2)cc1)Nc1ccc(C(F)(F)F)cc1`, the IC50 is 21.5 µM and the IC90 stood at 23.7 µM.

Consider `CCCCOc1ccc(-c2nnn(C(C)C(=O)OCC)n2)cc1` (stereo not drawn), for which the IC50 is 0.75 µM and the IC90 worked out at 5.42 µM.

Regarding `CCCCCCCCCCOC(=O)Cn1c(COc2ccc(Cl)cc2)[n+](C)c2ccccc21`, the IC50 was 11.8 µM and the IC90 was 13.3 µM.

For `Cc1ccc(C(=O)ONc2ccc(N=O)cc2)cc1`, the IC50 was 23.2 µM and the IC90 was found to be 43.1 µM.

For the compound `CCCOc1ccc(-c2cnc(SCC(N)=O)nc2N)cc1`, the IC50 is 12.1 µM and the IC90 came out at 50.2 µM.

As to `Cc1ccc(Cl)cc1N1CCN(Cc2nc3ccsc3c(=O)[nH]2)CC1`, the IC50 is 83.1 µM and the IC90 is greater than 100 µM.

On to `Cc1nc(NCCc2ccccc2)c2oc3ccccc3c2n1`, for which the IC50 was 6.49 µM and the IC90 was 14.2 µM.

Turning to `CN(C)c1ccnc2c[cH-]cc12.[Fe].c1ccc(-[c-]2[c-](-c3ccccc3)[c-](-c3ccccc3)[c-](-c3ccccc3)[c-]2-c2ccccc2)cc1` (stereo not drawn), the IC50 was 13.7 µM and the IC90 was 17.4 µM.

As to `OC(CN1CCCCC1)Cn1c2ccc(Cl)cc2c2cc(Cl)ccc21` (stereo not drawn), the IC50 is 8.94 µM and the IC90 came out at 11.6 µM.

With `CCc1cc(C(=O)Nc2ccc(C)cc2Br)cs1`, the IC50 is 30 µM and the IC90 is greater than 100 µM.

Consider `Cc1ccc(-c2noc(-c3cc4ccccc4oc3=O)n2)cc1`, for which the IC50 is 6.7 µM and the IC90 is greater than 100 µM.

Turning to `COc1ccc(N=c2ssnc2Cl)cc1`, the IC50 was 38.9 µM and the IC90 is greater than 100 µM.

Take `O=C(COC(=O)C1CC2CCCC(C1)C2=O)NNC(=O)c1ccccc1F` (stereo not drawn): the IC50 was 9.47 µM and the IC90 is greater than 100 µM.

Take `O=C(N/N=C/c1ccc([N+](=O)[O-])o1)c1sc2ccccc2c1Cl`: the IC50 was 2.65 µM and the IC90 worked out at 4.6 µM.

With `CCCCCc1ccc(S(=O)(=O)NCCc2ccncc2)cc1`, the IC50 was 34.1 µM and the IC90 was found to be 42.8 µM.

Turning to `Cc1cc(/C=N\NC(=O)c2cccs2)c(C)n1-c1ccc2ncccc2c1`, the IC50 was 12.1 µM and the IC90 came out at 31.7 µM.

`Oc1ccc(F)c2cccnc12`: the IC50 was 5.26 µM and the concentration for an effect of 90% (IC90) was found to be 6.88 µM.

Take `Cc1ccc(F)cc1CNC(=O)c1cc(COc2ccc3ncccc3c2)on1`: the IC50 was 29.2 µM and the IC90 was greater than 100 µM.

For `Cc1ccc(S(=O)(=O)n2ccc3c(OCCOCCNCc4ccc(F)cc4)cccc32)cc1`, the 50% inhibitory concentration (IC50) was 22.1 µM and the IC90 was found to be 25.5 µM.

On to `CCCCC(=O)OCC(=O)N1N=C(c2c[nH]c3ccccc23)C(O)C1c1ccc(OC)cc1` (stereo not drawn), for which the IC50 was 10.6 µM and the IC90 was 15.9 µM.

On to `O=[N+]([O-])c1cc(Cl)c(O)c(-[n+]2c(-c3ccccc3)cc(-c3ccccc3)cc2-c2ccccc2)c1`, for which the IC50 is 2.32 µM and the IC90 came to 5.36 µM.

For the compound `COc1cc(-c2ccc3oc(-c4ccsc4)cc(=O)c3c2)cc(OC)c1OC`, the IC50 was 2.07 µM and the IC90 was 17.6 µM.

On to `COc1ccc(-c2c(C#Cc3ccsc3)c3ccccc3n2C)cc1`, for which the IC50 was 25.5 µM and the IC90 worked out at 37.8 µM.

In the case of `Cc1cccc2c1-c1sc(C(=O)Nc3ccccc3N3CCN(C)CC3)cc1CO2`, the IC50 is 17.9 µM and the IC90 was 25.1 µM.

For the compound `Nc1c2c(nc3ccn(Cc4ccccc4)c(=O)c13)CCC2`, the concentration for half-maximal inhibition (IC50) was 13.7 µM and the IC90 was 33.6 µM.

On to `CCOC(=O)c1cc(-c2csc(Nc3c(C)cc(C)cc3C)n2)on1`, for which the IC50 is 1.07 µM and the IC90 stood at 1.76 µM.

Regarding `Cc1ccc(OC/C(O)=C(\C#N)c2nc3ccccc3s2)cc1`, the IC50 was 20.7 µM and the IC90 was 34 µM.

As for `COc1ccc([C@H]2CC(=O)C=C(c3ccc4c5c(cccc35)CC4)C2)cc1`, the IC50 was 11 µM and the IC90 is 23 µM.

On to `CC(C)Oc1ccc(C(=O)N/N=C/c2ccc(-c3ccc(S(=O)(=O)Nc4ncccn4)cc3)o2)cc1`, for which the IC50 is 19.2 µM and the IC90 was found to be 37.4 µM.

As to `Clc1cccc(-c2cc3nc4c(c(NCc5ccco5)n3n2)CCCC4)c1`, the IC50 is 11 µM and the IC90 worked out at 17.4 µM.

For the compound `Cc1nn(-c2ccccc2)c(N)c1C(c1ccc(C(C)C)cc1)c1c(C)nn(-c2ccccc2)c1N`, the concentration for half-maximal inhibition (IC50) was 20.4 µM and the IC90 was found to be 27.1 µM.

Turning to `O=C(/C=C/c1ccc(O)c([N+](=O)[O-])c1)c1ccc2ccccc2c1`, the IC50 was 9.26 µM and the IC90 was determined as 25.6 µM.

For `CCc1ccc(/C(C)=N/Nc2cc(Cl)nc(C)n2)cc1`, the IC50 was 41.9 µM and the IC90 came out at 99 µM.

With `Cc1c(CN2CCC(CO)(Cc3cccc(C(F)(F)F)c3)CC2)c2ccccc2n1C`, the IC50 was 20.6 µM and the 90% effect concentration (IC90) came to 28.9 µM.

On to `Nc1ccc(C(=O)OCCCc2nc3cc4ccccc4cc3[nH]2)cc1`, for which the IC50 was 45.6 µM and the IC90 is 51.7 µM.
